# How the values were obtained:
# Assay type in all cases: biochemical
# [1] = tested on: normal plasma pool; test: aPTT with PTT-A; details: rivaroxaban 0.35 μg/mL in PNP, no FXa
# [2] = tested on: thrombin generation in normal plasma; test: Thrombin generation (TGT) induced by tissue factor (0.5 pM)
# Method: The effect of an overdose of FXa in normal plasma was assessed by measuring thrombin generation (TGT) following induction by tissue factor (0.5 pM) (FIG. 5, Table I). Doses of 0.03 μg/ml to 0.5 μg/ml of FXa were compared. The quantity of thrombin generated depends on the dose of FXa added.
# A similar experiment was repeated in the presence of a therapeutic dose of 0.35 μg/ml of Rivaroxaban (FIG. 6, Table I). […] On the other hand, a correction of thrombin generation is obtained starting from 0.06 μg/ml (▪) up to a dose of 0.25 μg/ml (▴).
# [3] = tested on: thrombin generation in normal plasma pool; test: Thrombin generation test (TGT Fluoroskan), extrinsic pathway, TF 1 pM / PL 4 μM
# Method: The stock solution of rivaroxaban at 436 μg/mL is diluted in 5% DMSO in order to obtain intermediate concentrations which, added to the NPP (Normal Pool Plasma), give final concentrations of rivaroxaban in μg per mL of plasma.
# (§1) The thrombin generation test consists of activating coagulation ex vivo either using a mixture of tissue factor and phospholipids, or using cephalin and then measuring the concentration of thrombin generated over time.
# (§2) The reaction is started by the addition of 20 μL of Fluca-kit (substrate+CaCl2) which constitutes the start of the measurement of the appearance of thrombin. The appearance of fluorescence is measured on a fluorometer of the Fluoroskan Ascent type (ThermoLabsystems) at an excitation wavelength of 390 nm and emission wavelength of 460 nm. The thrombinograms (curves representing the intensity of fluorescence as a function of time) are then analyzed using the Thrombinoscope™ software which converts the fluorescence value to nM of thrombin by comparative calculation.
# [4] = tested on: thrombin generation in normal plasma pool; test: Thrombin generation test (TGT Fluoroskan), extrinsic pathway, TF 5 pM / PL 4 μM; details: rivaroxaban 0.35 μg/mL in PNP, no FXa
# Method: as §1, §2
# The reagents, the automaton and the experimental protocol are identical to those described in Example 1. […]
# [5] = tested on: normal plasma pool; test: Prothrombin time (PT) with RecombiPlastin
# [6] = tested on: thrombin generation in normal plasma; test: Thrombin generation (TGT) induced by cephalin
# Method: A series of similar experiments is carried out by inducing the initiation of coagulation by cephalin. The series of preliminary experiments mimics the extrinsic activation of coagulation. This second series of experiments mimics the intrinsic activation of coagulation. The presence of FXa in an increasing quantity in normal plasma (●) […] the speed of appearance of thrombin without changing the total quantity of thrombin generated (FIG. 7, Table II). The speed of appearance of the thrombin is correlated with the dose of FXa added. Shorter times to peak are obtained in the presence of FXa.
# The effect of FXa following the induction of thrombin generation by cephalin is then measured in the presence of Rivaroxaban at 0.35 μg/ml (FIG. 8, Table II). […] The presence of FXa in an increasing concentration makes it possible to increase the quantity of thrombin generated in a dose-dependent manner, as well as to reduce the time to peak. A maximum quantity of thrombin is obtained in the case of a concentration comprised between 0.125 and 0.25 μg/ml.
# [7] = tested on: thrombin generation in normal plasma pool; test: Thrombin generation test (CAT), intrinsic pathway, cephalin alone
# Method: as §1, §2
# The reagents, the automated equipment and the experimental protocol are identical to those described in Example 1.
# [8] = Unicalibrator + 0.35 μg/ml Rivaroxaban, no hFXa
# [9] = rivaroxaban 0.5 μg/mL in PNP, no FX (Table 2)
# [10] = rivaroxaban 0.5 μg/ml in PNP, no FX (Table 1)
# [11] = rivaroxaban 0.35 μg/ml in PNP, no FX
structure (smiles),measurement,setting,value
O=C(NC[C@H]1CN(c2ccc(N3CCOCC3=O)cc2)C(=O)O1)c1ccc(Cl)s1 [rivaroxaban],aPTT with PTT-A,[1],50.5 s
same,reduction of thrombin generation versus untreated plasma,[2]; 0.35 μg/ml of Rivaroxaban,approximately 75%
same,Lag time,[2]; [8],10.17 min
same,Peak,[2]; [8],10.69 nM
same,ttPeak,[2]; [8],20.5 min
same,effect on ability to generate thrombin from normal plasma,"[3]; 0.5 μg/mL of Rivaroxaban, activation by tissue factor and phospholipids",completely destroys the ability to generate thrombin
same,LT (lag time),[3]; [9],30.59 min
same,Peak,[3]; [9],6.83 nM
same,TTP (time to peak),[3]; [9],58.81 min
same,mVRI (mean velocity rate index),[3]; [9],0.24 nM/min
same,LT (lag time),[3]; [10],25.5 min
same,Peak,[3]; [10],7.42 nM
same,TTP (time to peak),[3]; [10],49.33 min
same,mVRI (mean velocity rate index),[3]; [10],0.31 nM/min
same,ETP (endogenous thrombin potential),[4],772 nM·min
same,LT (lag time),[4],11.11 min
same,Peak,[4],31.32 nM
same,ST (start time),[4],67 min
same,TTP (time to peak),[4],25.33 min
same,mVRI (mean velocity rate index),[4],2.20 nM/min
same,PT with RecombiPlastin 2G (ISI: 1.0),"[5]; rivaroxaban 0.35 μg/mL in PNP, no FXa",26 s
same,PT (RecombiPlastin ISI: 1.0),"[5]; rivaroxaban 0.5 μg/ml in PNP, no FX",32.5 s
same,effect on thrombin generation induced by cephalin,[6]; Rivaroxaban at 0.35 μg/ml,completely inhibits thrombin generation
same,ETP,[6]; [8],0 nM
same,Peak,[6]; [8],0 nM
same,ttPeak,[6]; [8],0 min
same,effect on ability to generate thrombin from normal plasma,"[7]; 0.35 μg/mL of Rivaroxaban, activation with Cephalin",completely destroys the ability to generate thrombin
same,ETP (endogenous thrombin potential),[7]; [11],230.5 nM·min
same,LT (lag time),[7]; [11],48.17 min
same,Peak,[7]; [11],8.49 nM
same,ST (start time),[7]; [11],116 min
same,TTP (time to peak),[7]; [11],54 min
same,mVRI (mean velocity rate index),[7]; [11],1.46 nM/min
